Results: patent publication US12552846B2, “Modified BCL9 mimetic peptides” (Sapience Therapeutics, Inc., priority 2019, dated 2026)
Square brackets hold non-standard residues; d marks the D form. Peptide text beside a SMILES is read from it.

Columns and labels:
[1] = tested on: HL60 promyelocytic leukemia cells; experiment: Cytotoxicity assay in HL60 cells (Annexin V FITC / PI flow cytometry); format: cell-based; conditions: 48 hours; for EC50: 0-80 μM, % Viability (Annexin V low, PI low)
How it was run: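 HL60 cells at 3.5×10^3/well in RPMI + 1.5% FBS exposed to peptides at 0-80 μM final for 48 h at 37 °C. Viability by flow cytometry after Annexin V-FITC/PI staining, gated on FSC vs SSC. % Viability is the fraction that is Annexin V^low and PI^low.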

MCF7 breast cancer cells = experiment: MCF7 subcutaneous tumor model, tumor volume; format: in vivo, NU/J mice; conditions: for tumor volume relative to vehicle and to peptide control BCL-134: 1 mg/kg or 5 mg/kg s.c. three times weekly for three weeks, dosing from day 14, starting tumor about 340 mm^3, p≤0.0004
Method: In this experiment, we examined the effect of peptide BCL-26 on tumor volume in an MCF7 subcutaneous tumor model. Briefly, 2×10^6 MCF7 breast cancer cells, suspended 1:1 in Matrigel, were implanted via subcutaneous injection into the axilla of NU/J mice. Peptide BCL-26 was administered at a dose of 12.5 mg/kg via subcutaneous injection three times weekly for three weeks. Dosing was initiated on day 2 post tumor inoculation, with an average starting tumor volume of about 25 mm^3.
We also examined the effect of BCL9 mimetic peptides in established tumors. MCF7 cells were implanted into mice as described above. Peptide BCL-87 was administered at a dose of 5 mg/kg via subcutaneous injection three times weekly for three weeks. Dosing was initiated on day 21 post tumor inoculation, with an average starting tumor volume of about 470 mm^3.
We additionally examined the effect of different concentrations of mimetic peptides in established tumors. MCF7 cells were implanted into mice as described above. Peptides BCL-27 and BCL-87 were administered at a dose of 1 mg/kg or 5 mg/kg via subcutaneous injection three times weekly for three weeks. Dosing was initiated on day 14 post tumor inoculation, with an average starting tumor volume of about 340 mm^3.

For `CSCC[C@@H](NC(=O)[C@@H](CC(C)C)NC(=O)[C@H](N)Cc1ccccc1)C(=O)N[C@H](CCCNC(=N)N)C(=O)N[C@H](CCC(N)=O)C(=O)N[C@H](CC(C)C)C(=O)N[C@H](CC(=O)O)C(=O)N[C@H](CCCNC(=N)N)C(=O)N[C@H](CC(C)C)C(=O)N[C@@H](C(=O)N[C@H](CCC(N)=O)C(=O)N[C@H](CC(C)C)C(=O)N[C@H](C)C(=O)N[C@H](CCCCN)C(=O)N[C@H](CC(C)C)C(=O)N[C@@H](C(=O)N1CCC[C@@H]1C(=O)N[C@@H](C(=O)O)C(C)C)[C@H](C)O)[C@H](C)O` [BCL-26, FLMRQLDRLTQLAKLTPV] (H-[dF][dL][dM][dR][dQ][dL][dD][dR][dL][dT][dQ][dL][dA][dK][dL][dT][dP][dV]-OH; N-terminus and C-terminus assumed), the EC50 [1] was over 10 µM and the “tumor volume relative to vehicle” value (MCF7 breast cancer cells; 12.5 mg/kg s.c. three times weekly for three weeks, dosing from day 2, starting tumor about 25 mm^3, p<0.0001) was “significantly reduced tumor volume”.

For `CC(C)C[C@@H](NC(=O)[C@@H](Cc1c[nH]c2ccccc12)NC(=O)[C@H](N)Cc1c[nH]c2ccccc12)C(=O)N[C@H](C)C(=O)N[C@H](CCCNC(=N)N)C(=O)N[C@H](CCC(N)=O)C(=O)N[C@H](CC(C)C)C(=O)N[C@H](C)C(=O)N[C@H](CCCNC(=N)N)C(=O)N[C@H](CC(C)C)C(=O)N[C@H](C)C(=O)N[C@H](CCC(N)=O)C(=O)N[C@H](CC(C)C)C(=O)N[C@H](C)C(=O)N[C@H](CCCCN)C(=O)N[C@H](CC(C)C)C(=O)N[C@@H](C(=O)N1CCC[C@@H]1C(=O)N[C@@H](C(=O)O)C(C)C)[C@H](C)O` [BCL-27, WWLARQLARLAQLAKLTPV] (H-[dW][dW][dL][dA][dR][dQ][dL][dA][dR][dL][dA][dQ][dL][dA][dK][dL][dT][dP][dV]-OH; N-terminus and C-terminus assumed), the EC50 [1] was 2 to 10 µM and the “tumor volume relative to vehicle and to peptide control BCL-134” value (MCF7 breast cancer cells) was “significantly reduced tumor volume”.

`CC(C)C[C@@H](NC(=O)[C@@H](CCCNC(=N)N)NC(=O)[C@@H](C)NC(=O)[C@@H](CC(C)C)NC(=O)[C@@H](CCC(N)=O)NC(=O)[C@@H](CCCNC(=N)N)NC(=O)[C@@H](C)NC(=O)[C@@H](CC(C)C)NC(=O)[C@@H](Cc1c[nH]c2ccccc12)NC(=O)[C@@H](Cc1c[nH]c2ccccc12)NC(=O)CNC(=O)[C@@H](CCCNC(=N)N)NC(=O)CNC(=O)[C@@H](CC(=O)O)NC(=O)[C@@H](CO)NC(=O)[C@H]1CCCN1)C(=O)N[C@H](C)C(=O)N[C@H](CCC(N)=O)C(=O)N[C@H](CC(C)C)C(=O)N[C@H](C)C(=O)N[C@H](CCCCN)C(=O)N[C@H](CC(C)C)C(=O)N[C@@H](C(=O)N1CCC[C@@H]1C(=O)N[C@@H](C(=O)O)C(C)C)[C@H](C)O` [BCL-87] (H-[dP][dS][dD]G[dR]G[dW][dW][dL][dA][dR][dQ][dL][dA][dR][dL][dA][dQ][dL][dA][dK][dL][dT][dP][dV]-OH; N-terminus and C-terminus assumed) was tested, and the EC50 [1] was 2 to 10 µM, the “tumor volume relative to vehicle and to peptide control BCL-134” value (MCF7 breast cancer cells) was “significantly reduced tumor volume” and the “tumor volume relative to vehicle” value (MCF7 breast cancer cells; 5 mg/kg s.c. three times weekly for three weeks, dosing from day 21, starting tumor about 470 mm^3, p<0.005) was “significantly reduced tumor volume”.

In the case of `CC(C)C[C@@H](NC(=O)[C@@H](CCCNC(=N)N)NC(=O)[C@@H](C)NC(=O)[C@@H](CC(C)C)NC(=O)[C@@H](CCC(N)=O)NC(=O)[C@@H](CCCNC(=N)N)NC(=O)[C@@H](CC(C)C)NC(=O)[C@@H](CC(C)C)NC(=O)[C@@H](Cc1c[nH]c2ccccc12)NC(=O)[C@H](N)Cc1c[nH]c2ccccc12)C(=O)N[C@H](C)C(=O)N[C@H](CCC(N)=O)C(=O)N[C@H](CC(C)C)C(=O)N[C@H](C)C(=O)N[C@H](CCCCN)C(=O)N[C@H](CC(C)C)C(=O)N[C@@H](C(=O)N1CCC[C@@H]1C(=O)N[C@@H](C(=O)O)C(C)C)[C@H](C)O` [BCL-128] (H-[dW][dW][dL][dL][dR][dQ][dL][dA][dR][dL][dA][dQ][dL][dA][dK][dL][dT][dP][dV]-OH; N-terminus and C-terminus assumed), the EC50 [1] is reported as under 2 µM.

For `CC(C)C[C@@H](NC(=O)[C@@H](CCCNC(=N)N)NC(=O)[C@@H](C)NC(=O)[C@@H](CC(C)C)NC(=O)[C@@H](CCC(N)=O)NC(=O)[C@@H](CCCNC(=N)N)NC(=O)[C@H](NC(=O)[C@@H](CC(C)C)NC(=O)[C@@H](Cc1c[nH]c2ccccc12)NC(=O)[C@H](Cc1c[nH]c2ccccc12)NC(=O)[C@H](N)Cc1ccccc1)C(C)C)C(=O)N[C@H](C)C(=O)N[C@H](CCC(N)=O)C(=O)N[C@H](CC(C)C)C(=O)N[C@H](C)C(=O)N[C@H](CCCCN)C(=O)N[C@H](CC(C)C)C(=O)N[C@@H](C(=O)N1CCC[C@@H]1C(=O)N[C@@H](C(=O)O)C(C)C)[C@H](C)O` [BCL-131] (H-[dF]W[dW][dL][dV][dR][dQ][dL][dA][dR][dL][dA][dQ][dL][dA][dK][dL][dT][dP][dV]-OH; N-terminus and C-terminus assumed), the EC50 [1] was under 2 µM.

`CC(C)C[C@@H](NC(=O)[C@@H](Cc1c[nH]c2ccccc12)NC(=O)[C@H](N)Cc1c[nH]c2ccccc12)C(=O)N[C@H](C)C(=O)N[C@H](CCCNC(=N)N)C(=O)N[C@H](CCC(N)=O)C(=O)N[C@H](CC(C)C)C(=O)N[C@H](C)C(=O)N[C@H](CCCNC(=N)N)C(=O)N[C@H](CC(C)C)C(=O)N[C@H](CCCNC(=N)N)C(=O)N[C@H](CCC(N)=O)C(=O)N[C@H](CC(C)C)C(=O)N[C@H](C)C(=O)N[C@H](CCCCN)C(=O)N[C@H](CC(C)C)C(=O)N[C@@H](C(=O)N1CCC[C@@H]1C(=O)N[C@@H](C(=O)O)C(C)C)[C@H](C)O` [BCL-80] (H-[dW][dW][dL][dA][dR][dQ][dL][dA][dR][dL][dR][dQ][dL][dA][dK][dL][dT][dP][dV]-OH; N-terminus and C-terminus assumed) showed an EC50 [1] of under 2 µM.

In the case of `CC(C)C[C@@H](NC(=O)[C@@H](C)NC(=O)[C@@H](C)NC(=O)[C@@H](CC(C)C)NC(=O)[C@@H](CCC(N)=O)NC(=O)[C@@H](CCCNC(=N)N)NC(=O)[C@@H](C)NC(=O)[C@@H](CC(C)C)NC(=O)[C@@H](Cc1c[nH]c2ccccc12)NC(=O)[C@H](Cc1c[nH]c2ccccc12)NC(=O)[C@H](N)Cc1ccccc1)C(=O)N[C@H](C)C(=O)N[C@H](CCC(N)=O)C(=O)N[C@H](CC(C)C)C(=O)N[C@H](C)C(=O)N[C@H](CCCCN)C(=O)N[C@H](CC(C)C)C(=O)N[C@@H](C(=O)N1CCC[C@@H]1C(=O)N[C@@H](C(=O)O)C(C)C)[C@H](C)O` [BCL-133] (H-[dF]W[dW][dL][dA][dR][dQ][dL][dA][dA][dL][dA][dQ][dL][dA][dK][dL][dT][dP][dV]-OH; N-terminus and C-terminus assumed), the EC50 [1] is reported as under 2 µM.

`CC(C)C[C@@H](NC(=O)[C@@H](Cc1c[nH]c2ccccc12)NC(=O)[C@@H](N)Cc1c[nH]c2ccccc12)C(=O)N[C@H](C)C(=O)N[C@H](CCCNC(=N)N)C(=O)N[C@H](CCC(N)=O)C(=O)N[C@H](CC(C)C)C(=O)N[C@H](C)C(=O)N[C@H](CCCNC(=N)N)C(=O)N[C@H](CC(C)C)C(=O)N[C@H](C)C(=O)N[C@H](CCC(N)=O)C(=O)N[C@H](CC(C)C)C(=O)N[C@H](C)C(=O)N[C@H](CCCCN)C(=O)N[C@H](CC(C)C)C(=O)N[C@@H](C(=O)N1CCC[C@@H]1C(=O)N[C@@H](C(=O)O)C(C)C)[C@H](C)O` [BCL-95] (H-W[dW][dL][dA][dR][dQ][dL][dA][dR][dL][dA][dQ][dL][dA][dK][dL][dT][dP][dV]-OH; N-terminus and C-terminus assumed) gave an EC50 [1] of under 2 µM.

In the case of `CC(C)C[C@@H](NC(=O)[C@@H](C)NC(=O)[C@@H](C)NC(=O)[C@@H](CC(C)C)NC(=O)[C@@H](CCC(N)=O)NC(=O)[C@@H](C)NC(=O)[C@@H](C)NC(=O)[C@@H](CC(C)C)NC(=O)[C@@H](Cc1c[nH]c2ccccc12)NC(=O)[C@@H](Cc1c[nH]c2ccccc12)NC(=O)CNC(=O)[C@@H](CCCNC(=N)N)NC(=O)CNC(=O)[C@@H](CC(=O)O)NC(=O)[C@@H](CO)NC(=O)[C@H]1CCCN1)C(=O)N[C@H](C)C(=O)N[C@H](CCC(N)=O)C(=O)N[C@H](CC(C)C)C(=O)N[C@H](C)C(=O)N[C@H](CCCCN)C(=O)N[C@H](CC(C)C)C(=O)N[C@@H](C(=O)N1CCC[C@@H]1C(=O)N[C@@H](C(=O)O)C(C)C)[C@H](C)O` [BCL-134, reference compound] (H-[dP][dS][dD]G[dR]G[dW][dW][dL][dA][dA][dQ][dL][dA][dA][dL][dA][dQ][dL][dA][dK][dL][dT][dP][dV]-OH; N-terminus and C-terminus assumed), the cytotoxic activity [1] is reported as “Lack of cytotoxic activity” and the EC50 [1] is reported as over 80 µM.

`CC(C)C[C@@H](NC(=O)[C@@H](Cc1c[nH]c2ccccc12)NC(=O)[C@H](N)Cc1ccccc1)C(=O)N[C@H](C)C(=O)N[C@H](CCCNC(=N)N)C(=O)N[C@H](CCC(N)=O)C(=O)N[C@H](CC(C)C)C(=O)N[C@H](C)C(=O)N[C@H](CCCNC(=N)N)C(=O)N[C@H](CC(C)C)C(=O)N[C@H](C)C(=O)N[C@H](CCC(N)=O)C(=O)N[C@H](CC(C)C)C(=O)N[C@H](C)C(=O)N[C@H](CCCCN)C(=O)N[C@H](CC(C)C)C(=O)N[C@@H](C(=O)N1CCC[C@@H]1C(=O)N[C@@H](C(=O)O)C(C)C)[C@H](C)O` [BCL-79] (H-[dF][dW][dL][dA][dR][dQ][dL][dA][dR][dL][dA][dQ][dL][dA][dK][dL][dT][dP][dV]-OH; N-terminus and C-terminus assumed) gave an EC50 [1] of under 2 µM.
